Experimental data taken from patent US20070254894A1, “Novel small molecules with selective cytotoxicity against human microvascular endothelial cell proliferation” (priority 2006, published 2007).
Where two headings read alike, the source gives them in different places.

Columns and labels:
[1] = system: HMVEC cells stimulated with b-FGF; assay: b-FGF driven HMVEC proliferation screen; format: cell-based
Experimental: (§1) HMVEC cells were plated on collagen-coated plates at 2500 cells/well for 24 hours. Various concentrations of test compounds were then added to duplicate plates. […] Anti-FGF antibody (final concentration of 5 μg/mL) was added to four control wells as a standard inhibitor. At the same time the compounds were added, a T-zero plate was generated (Alamar blue was added to a plate and read after three hours). The plates with the compounds were incubated for one hour at 37° C., 5% carbon dioxide. At this point, b-FGF was added (final concentration of 2.5 ng/mL). Tween-20 (10 μL) was added to four additional control wells to represent total death and the plates were returned to the carbon dioxide incubator for 6 days.

[2] = system: HMVEC cells stimulated with VEGF 165; assay: VEGF driven HMVEC proliferation screen; format: cell-based
Experimental: as §1
The assay was run identically using VEGF in place of b-FGF. The final concentration of VEGF 165, in this mode, was 10 ng/mL. The control inhibitor was anti-VEGF antibody (final concentration of […]). All other conditions were the same.

[3] = system: Primary Human Dermal Fibroblasts; assay: in vitro; conditions: read-out: D. Fibroblast LC50; 6 days, Alamar blue
Experimental: (§2) In parallel with the VEGF and FGF screens, a normal cell toxicity assay was run. Primary Human Dermal Fibroblasts (Clonetics) were plated at 5000 cells/well. After 24 hours various concentrations of test compounds, were added in duplicate plates and 10% Tween-20 was added to four control wells to represent total death. At the same time a T-zero plate was generated. The plates were returned to the carbon dioxide incubator and on day 6 Alamar blue was added and the plates read after 3 hours.
(§3) Using a T-zero plate allows the observation of compounds that cause the cells to become static as well as inhibit growth.

[4] = system: retinal neovascularization; assay: Mouse model of oxygen induced retinopathy (OIR), intravitreal administration; format: in vivo, C57BL/6 mouse; conditions: for amount of neovascularization: intravitreal once on day 12, 30 mg/ml, eyes examined day 17, versus controls; for pupils of treated animals: for the duration of the study
Experimental: Seven day old neonatal C57BL/6 mouse pups and their nursing dam were placed in an isobaric chamber that maintains a 75% oxygen level. The pups were returned to a normoxic environment at 12 days of age. The test articles and vehicle controls were administered intravitreally (once on day 12). Approximately one half of the pups from each litter were injected, the remaining pups were used as controls. Pups were euthanized on day 17 and their left/treated eye is processed for histological sectioning. […] The degree of neovascularization was measured by examining serial sections of the eye taken at 100 micron intervals. The numbers of endothelial nuclei that were internal but contiguous to the inner limiting membrane were counted. The number of nuclei from test article treated animals was compared with those counted in control animals. [table]

[5] = in vitro; conditions: human, primary human dermal fibroblasts, D. Fibroblast LC50, 6 days, Alamar blue
Experimental: as §2, §3

Compound	CC50 [1] [nM]	CC50 [2] [nM]	CC50 [3] [nM]	amount of neovascularization [4]	effect on neovascularization, Compound 9 compared with Compound 98 ([4]; intravitreal, 30 mg/ml, FIG. 1 and FIG. 2)	pupils of treated animals ([4]; intravitreal)	CC50 ([1]; Homo sapiens, HMVEC, 144 h, b-FGF 2.5 ng/mL, 6 days, Alamar blue, read-out: b-FGF LC50) [nM]	CC50 ([2]; Homo sapiens, HMVEC, 144 h, VEGF 165 10 ng/mL, 6 days, Alamar blue, read-out: VEGF LC50) [nM]	CC50 at 6 days [5] [nM]
O=C(Nc1ccc(N2CCOCC2)c2cccnc12)c1ccccn1 [Compound 9]	37	35	> 10000	a decrease in the amount of neovascularization	A greater effect	markedly dilated			
CN1CCN(c2ccc(NC(=O)c3ccccn3)c3ncccc23)CC1 [Compound 98]				a decrease in the amount of neovascularization		markedly dilated	36	33	> 10000
